Source: patent publication US11040052B2, “Methods and pharmaceutical compositions for modulating autophagy in a subject in need thereof” (INSERM (INSTITUT NATIONAL DE LA SANTE ET DE LA RECHERCHE …, priority 2013, dated 2021)
“Also recorded” adds a separate entry of the source. Like-named read-outs stand apart in the source and are kept apart here.

How the values were obtained:
[1] = test system: intracellular amino acid levels; test: Intracellular amino acid levels by mass spectrometry; assay type: cell-based; settings: starved cells
Experimental: Profiling of intracellular metabolites was performed on a RRLC 1260 system (Agilent Technologies) coupled to a QTOF 6520 (Agilent) equipped with an electrospray source operating in positive ion and full scan mode from 100 to 1000 Da. The gas temperature was set at 350° C. with a gas flow of 10 L·min^1. The capillary voltage was set at 4.0 kV, and the fragmentor at 150 V. Two reference masses were used to maintain the mass accuracy during analysis: 121.050873 (C5H4N4) and 922.009798 (C18H18O6N3P3F24). Five μL of sample were injected on a 150 mm×2.1 mm 3.5 μm SB Aq column (Agilent) with a pre-column 30 mm×2.1 mm 3.5 μm Eclipse plus (Agilent). The gradient mobile phase consisted of water with 10 mmol/L of ammonium acetate and 0.01% of acetic acid (A) and acetonitrile (B). Initial composition of mobile phase was 2% of B, followed by an increase to 95% of B in 10 min. The flow rate was set to 0.3 mL·min^−1.

MCA205 tumor = test: Growth of transplantable tumors with chemotherapy; assay type: in vivo, mice; settings: for tumor growth, combined with oxaliplatin: data not shown; for tumor growth, combined with MTX: immunocompetent wild type mice, agent given before and with mitoxanthrone; for tumor growth, combined with MTX, immunodeficient mice: nu/nu (nude athymic) mice
Experimental: (§1) C57BL/6 mice (Charles River Laboratory, Lentilly, France) were bred and maintained according to both the FELASA and the Animal Experimental Ethics Committee Guidelines (Val de Marne, France). Mice were housed in a temperature-controlled environment with 12 h light/dark cycles and received food and water ad libitum. For HC-related experiments, mice were injected intraperitoneally with a single 100 mg/kg dose and 6 h later were sacrificed and tissues were immediately frozen in liquid nitrogen. For DCA- and DMKG-related experiments, mice were subjected to 24 h starvation and injected intraperitoneally each 8 h with a 100 mg/kg of either DCA or DMKG solution prepared in PBS. After 24 h of starvation, mice were sacrificed and tissues were immediately frozen in liquid nitrogen after extraction and homogenized two cycles for 20 s at 5,500 rpm using Precellys 24 tissue homogenator (Bertin Technologies, Montigny-le-Bretonneux, France) in a 20 mM Tris buffer (pH 7.4) containing 150 mM NaCl, 1% Triton X-100, 10 mM EDTA and Complete® protease inhibitor cocktail (Roche Applied Science). Tissue extracts were then centrifuged at 12,000 g at 4° C. and supernatants were collected. Protein concentration in the supernatants was evaluated by the bicinchoninic acid technique (BCA protein assay kit, Pierce Biotechnology, Rockford, Ill.). For hydroxycitrate-related weight-loss experiments, autophagy-deficient Atg4b^−/− mice were used. Atg4b^−/− mice have been previously described (Mariño et al., 2010). For HC-, spermidine-, and resveratrol-related experiments (tumour growth) mice were intraperitoneally injected with respectively 100 mg/kg, 50 mg/kg and 100 mg/kg doses at day 8 and day 9. At day 9, mice were intraperitoneally injected with 2 mg/kg single dose of Mitoxanthrone. For starvation related experiment (tumour growth) mice were treated as previously described (Fabrizio et. al., 2010).
Six weeks old female C57BL/6, Balb/c and nude athymic mice (Harlan Laboratory, Gannat, France) were bred and maintained according to both the FELASA and the Animal Experimental Inserm Ethics Committee Guidelines (project: 2012-69). Mice were housed in a temperature-controlled environment with 12 h light/dark cycles and received food and water ad libitum. For tumor growth experiments, procedures adopted are described as follows: 3×10^5 tumor cells were subcutaneously inoculated; when tumors became palpable (day −1 before chemotherapy), mice were first intraperitoneally injected with 100 mg/kg Potassium Hydroxycitrate, 10 mg/kg Acetylsalicylic Acid, 30 mg/kg SB204990, 30 mg/kg c646, 5 mg/kg Rapamycin, 25 mg/kg Resveratrol, 50 mg/kg Spermidine. At day 0, mice were intraperitoneally injected with the abovementioned compounds and with 5.17 mg/Kg Mitoxanthrone or 5 mg/kg Oxaliplatin. Tumor size was measured every two days. For starvation experiments, mice underwent 48 hour fasting followed by intreperitoneal injection of chemotherapeutics. For autophagy induction study, 6 hours after CRMs administration, mice were sacrificed and tissues were snap-frozen in liquid nitrogen after extraction and homogenized two cycles for 20 s at 5,500 rpm using Precellys 24 tissue homogenator (Bertin Technologies, Montigny-le-Bretonneux, France) in a 20 mM Tris buffer (pH 7.4) containing 150 mM NaCl, 1% Triton X-100, 10 mM EDTA and Complete® protease inhibitor cocktail (Roche Applied Science, Penzberg, Germany). Tissue extracts were then centrifuged at 12,000 g at 4° C. and supernatants were collected. Protein concentration in the supernatants was evaluated by the bicinchoninic acid technique (BCA protein assay kit, Pierce Biotechnology, Rockford, US.

[2] = test system: autophagy in mice tissues; test: Autophagy induction in tissues of fed mice (LC3 lipidation, p62, GFP-LC3 dots); assay type: in vivo
Experimental: as §1
To avoid post-mortem autophagy induction, dead mice were immediately perfused with 4% paraformaldehyde (w:v in PBS, pH 7.4). Tissues were then harvested and further fixed with the same solution for at least 4 h, followed by treatment with 15% sucrose (w:v in PBS) for 4 h and with 30% sucrose (w:v in PBS) overnight. Tissue samples were embedded in Tissue-Tek OCT compound (Sakura Finetechnical Co. Ltd., Tokyo, Japan) and stored at −70° C. Five μm-thick tissue sections were prepared with a CM3050 S cryostat (Leica Microsystems GmbH, Wetzlar, Germany), air-dried for 1 h, washed in PBS for 5 min, dried at RT for 30 min, and mounted with VECTASHIELD anti-fading medium. In each organ, the number of GFP-LC3 dots was counted in five independent visual fields from at least five mice using a TCS SP2 confocal fluorescence microscope (Leica Microsystems GmbH).
Six weeks old female C57BL/6, Balb/c and nude athymic mice (Harlan Laboratory, Gannat, France) were bred and maintained according to both the FELASA and the Animal Experimental Inserm Ethics Committee Guidelines (project: 2012-69). Mice were housed in a temperature-controlled environment with 12 h light/dark cycles and received food and water ad libitum. For tumor growth experiments, procedures adopted are described as follows: 3×10^5 tumor cells were subcutaneously inoculated; when tumors became palpable (day −1 before chemotherapy), mice were first intraperitoneally injected with 100 mg/kg Potassium Hydroxycitrate, 10 mg/kg Acetylsalicylic Acid, 30 mg/kg SB204990, 30 mg/kg c646, 5 mg/kg Rapamycin, 25 mg/kg Resveratrol, 50 mg/kg Spermidine. At day 0, mice were intraperitoneally injected with the abovementioned compounds and with 5.17 mg/Kg Mitoxanthrone or 5 mg/kg Oxaliplatin. Tumor size was measured every two days. For starvation experiments, mice underwent 48 hour fasting followed by intreperitoneal injection of chemotherapeutics. […]

Compound | intracellular amino acid levels [1] | tumor growth, combined with MTX (MCA205 tumor) | tumor growth, combined with MTX, immunodeficient mice (MCA205 tumor) | autophagy in vivo (LC3 lipidation, p62, GFP-LC3) [2] | also measured
CC(C)CC(=O)C(=O)O [KIC, ketoisocaproic acid] | barely increased intracellular leucine levels | – | – | – | –
O=C(O)CC(O)(C(=O)O)C(O)C(=O)O (stereo not shown) [HC, hydroxycitrate] | – | mimics the effects of 48 h fasting in delaying subcutaneous MCA205 tumor growth; also recorded: improves the efficacy of chemotherapy and significantly reduces tumor growth of MCA205 cells in wild type; also recorded: similarly improved tumor growth reduction by MTX; also recorded: more efficient than monotherapy with MTX | not in immunodeficient nu/nu mice | induced an increase in autophagic flux in vivo; also recorded: strongly stimulated autophagy both in vitro and in vivo; also recorded: triggered a systemic autophagic response comparable to that induced by starvation; also recorded: similarly efficient as a starvation period of 48 h | tumor growth, combined with MTX, autophagy-deficient tumors (MCA205 tumor; MCA205 cells with Atg5 or Atg7 shRNA): tumor growth control is lost; also recorded: largely therapy-resistant; tumor growth, combined with oxaliplatin (MCA205 tumor): caused superior tumor growth reduction, but only in WT, not in nu/nu mice; tumor growth, combined with oxaliplatin (MCA205 tumor; listed as hydroxycitrate): improved the therapeutic outcome of treatments with MTX (FIG. 8G) or oxaliplatin; tumor growth, combined with MTX (MCA205 tumor; listed as hydroxycitrate): enhanced the tumor growth-inhibitory effect of chemotherapy as efficiently as did starvation; also recorded: improved the therapeutic outcome of treatments with MTX; tumor growth, combined with MTX, CD39-expressing tumors (MCA205 tumor; tumors engineered to express the ecto-ATPase CD39, data not shown): lost its therapeutic efficacy; autophagy in vivo (LC3 lipidation, p62, GFP-LC3) ([2]; listed as Hydroxycitrate): elicits autophagy in mice muscle after 6 hours; autophagy in vivo (LC3 lipidation, p62, GFP-LC3) ([2]; listed as hydroxycitrate): triggered a systemic autophagic response comparable to that induced by starvation
COC(=O)CCC(=O)C(=O)OC [DMKG, dimethyl-α-ketoglutarate] | failed to enhance intracellular amino acid levels | – | – | – | –
CC1=NN(c2ccc(C(=O)O)cc2)C(=O)/C1=C\c1ccc(-c2cc(C)c(C)cc2[N+](=O)[O-])o1 [c646] | – | can enhance chemotherapy efficacy | failed | elicits autophagy in mice muscle after 6 hours; also recorded: induced autophagy both in vitro, in cultured cells, and in vivo, in mice | tumor growth, combined with MTX (MCA205 tumor; listed as C646): HC could be replaced
